This is an account of results in US7803571B2, “Method for identifying IRS inhibitors or agonists” (Sanfoi-Aventis Deutschland GmbH, priority 2003, dated 2010).

Holding throughout (format): biochemical
The subject of test [1] is PKC from rat brain (PKC-rb). The test can be described thus: Serine/threonine phosphorylation of rIRS-1^449-664 by PKC from rat brain ([32P]ATP, autoradiography). The conditions noted are these: 0.5 μg PKC-rb, 1 μg rIRS-1^449-664, 50 μM ATP. The protocol:
For rIRS-1^449-664 phosphorylation by insulin receptor, […] of the WGA-purified glycoprotein fraction was preincubated for 30 min at 30° C. with 100 nM of insulin in a phosphorylation buffer containing 20 mM Hepes (pH 7.4), 1 mM DTT, 10 mM MgCl2, 100 μg/ml bovine serum albumin, 0.2 mM Na3VO4, 1.7 mM CaCl2, 0.6 mg/ml phosphatidylserine, and 0.5 μg/ml okadaic acid. Autophosphorylation was initiated by the addition of ATP at a concentration of 50 μM and continued for 10 min at 30° C. Substrate phosphorylations were initiated by addition of equal volumes of […] (1 μg) with or without pre-treatment (30 min) by the PKC isoforms in the same buffer in the presence of 50 μM ATP and was allowed to proceed for 10 min at 30° C. in a final volume of 50 μl. […] Proteins were separated by SDS-PAGE and analyzed by immunodetection with an anti-phosphotyrosine antibody after transfer to nitrocellulose. Serine/threonine phosphorylation of rIRS-1^449-664 by different PKC isoforms was assessed by incubating 1 μg rIRS-1^449-664 with 0.5 μg PKC-rb or PKC-ζ in phosphorylation buffer for 30 min at 30° C. in the presence of 50 μM ATP plus 2 μCi [γ-^32P]ATP in a volume of 20 μl. […] The extent of phosphate incorporation was determined by Cerenkov counting of excised fragments. […]

For test [2], the system named is PKC. The test can be described thus: Phosphorylation of IRS-1 serine 612 by PKC, immunoblot with phosphoserine 612 antibody. Particulars: PKC from rat brain and PKC-ζ, 30 min at 30° C. The protocol: (A) 0.5 μg of rIRS-1^449-664 was incubated with 0.5 μg of the different PKCs for 30 min at 30° C. and immunoblotted with an antibody against phosphoserine 612. A representative experiment is shown. (B) Binding of p85α to immobilized peptides corresponding to the IRS-1 amino acids 605 to 615 with phosphotyrosine 608 or (C) without phosphotyrosine using surface plasmon resonance (pY608 -DDGpYMPMSPGV and Y608 -DDGYMPMSPGV). Protein concentrations of p85α used were (from bottom to top): 1, 5,10, 25, 50,100, 250, 500 nM. (D) Inhibition of p85α binding by competition with soluble peptides pY608-DDGpYMPMSPGV or (E) pY608-pS612-DDGpYMPMpSPGV. The soluble peptides were also immobilized on the chip. (F) Half-maximum inhibitory concentrations (IC50) were obtained by plotting the SPR response at equilibrium (440 s after injection) versus the log peptide concentration.
The inventors assessed modification of this site by PKC using a specific IRS-1 phosphoserine 612 antibody (αpS^612).

Test [3] deals with T1, insulin receptor (Rattus norvegicus, UniProt P15127).
T1 construct: from tissue; host or cells: rat liver
The test can be described thus: In vitro phosphorylation assay: tyrosine phosphorylation of rIRS-1^449-664 by insulin receptor. Particulars: BIM added for 10 min before substrate phosphorylation by IR. As to the method:
Rat liver was rapidly removed, immediately frozen in liquid nitrogen and processed as described (41). Briefly, 3.5 vol/wt of an ice-cold buffer consisting of 50 mM Hepes (pH 7.4), 1% Triton X-100 and 2× Complete Protease Inhibitors was added and the liver was homogenized using an Ultraturrax and a Potter-Elvehjem homogenizer, followed by centrifugation at 10,000×g for 10 min at 4° C. The resultant supernatant was slowly stirred at room temperature for 60 min, then again centrifuged at 100,000×g for 90 min at 4° C. The supernatant was then applied to an agarose-bound wheat germ agglutinin (WGA) column. The column was washed with 50 mM Hepes (pH 7.4), 0.1% Triton X-100, and bound glycoproteins were eluted from the WGA column with this buffer containing 0.3 M N-acetylglucoseamine.
For rIRS-1^449-664 phosphorylation by insulin receptor, […] of the WGA-purified glycoprotein fraction was preincubated for 30 min at 30° C. with 100 nM of insulin in a phosphorylation buffer containing 20 mM Hepes (pH 7.4), 1 mM DTT, 10 mM MgCl2, 100 μg/ml bovine serum albumin, 0.2 mM Na3VO4, 1.7 mM CaCl2, 0.6 mg/ml phosphatidylserine, and 0.5 μg/ml okadaic acid. Autophosphorylation was initiated by the addition of ATP at a concentration of 50 μM and continued for 10 min at 30° C. Substrate phosphorylations were initiated by addition of equal volumes of […] (1 μg) with or without pre-treatment (30 min) by the PKC isoforms in the same buffer in the presence of 50 μM ATP and was allowed to proceed for 10 min at 30° C. in a final volume of 50 μl. The reaction was terminated by the addition of 6× sample buffer (0.35 M Tris-HCl (pH 6.8), 10.28% (w/v) SDS, 36% (v/v) glycerol; 0.6 M DTT, 0.012% (w/v) bromphenol blue) and boiling for 5 min. Proteins were separated by SDS-PAGE and analyzed by immunodetection with an anti-phosphotyrosine antibody after transfer to nitrocellulose. Serine/threonine phosphorylation of rIRS-1^449-664 by different PKC isoforms was assessed by incubating 1 μg rIRS-1^449-664 with 0.5 μg PKC-rb or PKC-ζ in phosphorylation buffer for 30 min at 30° C. in the presence of 50 μM ATP plus 2 μCi [γ-^32P]ATP in a volume of 20 μl. Proteins were resolved by SDS-PAGE and the stained and dried gels were subjected to autoradiography. The extent of phosphate incorporation was determined by Cerenkov counting of excised fragments.
Proteins were separated by SDS-PAGE using 8-18% gradient gels followed by transfer to nitrocellulose in a semi-dry blotting apparatus. […] All blots were quantified using the Lumilmager software. Significance of reported differences was evaluated by using the null hypothesis and t statistics for unpaired data. […]

T1 sequence (P15127 27-759 limits assumed): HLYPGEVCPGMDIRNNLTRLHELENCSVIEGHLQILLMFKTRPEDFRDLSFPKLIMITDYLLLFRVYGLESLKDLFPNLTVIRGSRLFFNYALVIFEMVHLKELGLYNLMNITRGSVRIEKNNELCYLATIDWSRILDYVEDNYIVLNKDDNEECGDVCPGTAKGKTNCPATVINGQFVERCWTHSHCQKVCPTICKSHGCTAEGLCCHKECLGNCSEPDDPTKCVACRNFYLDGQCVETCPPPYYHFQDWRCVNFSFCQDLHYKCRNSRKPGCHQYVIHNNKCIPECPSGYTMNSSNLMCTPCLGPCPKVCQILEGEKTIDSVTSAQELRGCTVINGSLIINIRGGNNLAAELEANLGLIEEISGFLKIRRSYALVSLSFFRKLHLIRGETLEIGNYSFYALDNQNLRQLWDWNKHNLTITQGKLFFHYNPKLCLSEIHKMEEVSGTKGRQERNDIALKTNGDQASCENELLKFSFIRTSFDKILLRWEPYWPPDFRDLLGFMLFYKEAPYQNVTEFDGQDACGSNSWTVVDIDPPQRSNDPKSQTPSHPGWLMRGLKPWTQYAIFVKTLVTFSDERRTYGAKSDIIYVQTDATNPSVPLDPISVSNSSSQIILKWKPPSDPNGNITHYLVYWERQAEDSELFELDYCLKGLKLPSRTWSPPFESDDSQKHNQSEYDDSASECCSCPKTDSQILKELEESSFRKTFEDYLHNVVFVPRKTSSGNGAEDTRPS

Take `CN(C)CCCn1cc(C2=C(c3c[nH]c4ccccc34)C(=O)NC2=O)c2ccccc21` [BIM, bisindolylmaleimide I]: in test [1], the “Phosphorylation of rIRS-1^449-664 by PKC-rb in the presence of inhibitor” value is “inhibited”. Further, in test [2], the “Phosphorylation of serine 612 of rIRS-1^449-664 by PKC in the presence of inhibitor” value is given as “clearly prevented the phosphorylation of this serine”. Besides, the “Effect of inhibiting PKC-rb after phosphorylation of rIRS-1^449-664 on the reduced tyrosine phosphorylation and p85α association” value in test [3] is listed as “did not modify this result”.
